This is an account of results in patent US20210047290A1, “SPIRO COMPOUND AS INDOLEAMINE-2,3-DIOXYGENASE INHIBITOR” (SHANGHAI INSTITUTE OF ORGANIC CHEMISTRY, CHINESE ACADEMY OF …, priority 2018, published 2021).

Some results are limits rather than exact numbers.

The target in the test is T1, IDO in Hela cells (Homo sapiens, UniProt P14902).
T1 construct: endogenous in cells; host or cells: HeLa cells stimulated with human interferon γ
The test can be described thus: Test of cellular activity (kynurenine formation in interferon γ stimulated Hela cells). The format is cell-based. Conditions: head prints IPS cells, method: Hela cells, 48 h incubation, read at 480 nm. Here is the method:
(3) Test Method of Cellular Activity
Hela cells (80 μL) was inoculated on a 96-well plate (5×10^3 for each well) to grow overnight. After the compound was diluted the next day, 1 μL of diluent and 100 μL of culture medium which contains human interferon γ (final concentration: 50 ng/m) were added into the 96-well plate to make the final volume reach […]. After incubating for 48 h, 80 μL of supernate was transferred from each well to a new […]. 10 μL 6.1N trichloroacetic acid was added into each well for mixing and incubation at 50° C. for 30 min, and […] N formyl-kynurenin into kynurenine. The reaction mixture was centrifuged at 2,500 rpm for 10 min, 70 μL of supernatant of each well was transferred to a new 96-well plate and mixed with 100 μL of 2% (w/v) dimethylaminobenzaldehyde acetic acid solution. After placing for 5-10 min, measurement was carried out at 480 nm with the SPECTRAmax i13 reader.

T1 sequence (P14902 whole entry): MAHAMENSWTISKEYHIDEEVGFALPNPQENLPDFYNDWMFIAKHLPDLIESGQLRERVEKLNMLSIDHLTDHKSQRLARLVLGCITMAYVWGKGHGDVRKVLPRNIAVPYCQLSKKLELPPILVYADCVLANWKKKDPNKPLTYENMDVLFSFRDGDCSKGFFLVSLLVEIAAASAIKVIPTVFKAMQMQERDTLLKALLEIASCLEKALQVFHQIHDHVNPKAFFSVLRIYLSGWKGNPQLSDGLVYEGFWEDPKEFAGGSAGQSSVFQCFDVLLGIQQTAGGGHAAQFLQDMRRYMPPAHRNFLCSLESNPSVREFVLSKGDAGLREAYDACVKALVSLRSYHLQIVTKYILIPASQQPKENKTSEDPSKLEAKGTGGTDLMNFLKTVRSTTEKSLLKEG

With `O=C(Nc1ccc(Cl)cc1)C1CCC12CCC(c1ccnc3ccc(F)cc13)CC2` (racemic) [Example 10B, (±) N-(4-chlorophenyl)-7-(6-fluoroquinolin-4-yl)spiro[3.5]nonane-1-carboxamide], the IC50 is > 3 nM. The molecule `O=C(Nc1ccc(F)cc1)C1CC2(CCC(c3ccnc4ccc(F)cc34)CC2)C1` (single isomer, unassigned) [Example 25, N-(4-fluorophenyl)-7-(6-fluoroquinolin-4-yl)spiro[3.5]nonane-2-carboxamide] displayed an IC50 of 0.69 nM. To `O=C(Nc1ccc(Br)cc1)C1CC2(CCC(c3ccnc4ccc(F)cc34)CC2)C1` (single isomer, unassigned) [Example 26, N-(4-bromophenyl)-7-(6-fluoroquinoline-4-yl)spiro[3.5]nonane-2-carboxamide] belongs 0.79 nM; to `O=C(Nc1ccccn1)C1CC2(CCC(c3ccnc4ccc(F)cc34)CC2)C1` (single isomer, unassigned) [Example 27], > 10 nM. To `Cn1ccc(-c2ccc(NC(=O)C3CC4(CCC(c5ccnc6ccc(F)cc56)CC4)C3)cc2F)n1` (single isomer, unassigned) [Example 28, N-(3-fluoro-4-(1-methyl-1H-pyrazol-3-yl)phenyl)-7-(6-fluoroquinolin-4-yl)spiro[3.5]nonane-2-carboxamide] belongs > 10 nM.

Take `O=C(Nc1ccccc1Cl)C1CC2(CCC(c3ccnc4ccc(F)cc34)CC2)C1` (single isomer, unassigned) [Example 29, N-(2-chlorophenyl)-7-(6-fluoroquinolin-4-yl)spiro[3.5]nonane-2-carboxamide]: the IC50 is > 10 nM. The molecule `O=C(Nc1ccc(Cl)cc1F)C1CC2(CCC(c3ccnc4ccc(F)cc34)CC2)C1` (single isomer, unassigned) [Example 30, N-(4-chloro-2-fluorophenyl)-7-(6-fluoroquinoline-4-yl)spiro[3.5]nonane-2-carboxamide] yielded an IC50 of 2.53 nM.

In turn, `O=C(Nc1cccc(F)c1)C1CC2(CCC(c3ccnc4ccc(F)cc34)CC2)C1` (single isomer, unassigned) [Example 31, N-(3-fluorophenyl)-7-(6-fluoroquinoline-4-yl)spiro[3.5]nonane-2-carboxamide] showed an IC50 of 1.97 nM.

As for `O=C(Nc1cccc(Br)c1)C1CC2(CCC(c3ccnc4ccc(F)cc34)CC2)C1` (single isomer, unassigned) [Example 32, N-(3-bromophenyl)-7-(6-fluoroquinoline-4-yl)spiro[3.5]nonane-2-carboxamide], the IC50 is > 10 nM. `O=C(Nc1cccnc1)C1CC2(CCC(c3ccnc4ccc(F)cc34)CC2)C1` (single isomer, unassigned) [Example 33, 7-(6-fluoroquinoline-4-yl)-N-(pyridine-3-yl)spiro[3.5]nonane-2-carboxamide]: the IC50 was > 10 nM. To `O=C(Nc1ccc(Cl)c(F)c1)C1CC2(CCC(c3ccnc4ccc(F)cc34)CC2)C1` (single isomer, unassigned) [Example 34, N-(3-fluoro-4-chlorophenyl)-7-(6-fluoroquinoline-4-yl)spiro[3.5]nonane-2-carboxamide] belongs 1.36 nM; to `O=C(Nc1ccc(C(F)(F)F)cc1)C1CC2(CCC(c3ccnc4ccc(F)cc34)CC2)C1` (single isomer, unassigned) [Example 35, 7-(6-fluoroquinolin-4-yl)-N-(4-(trifluoromethyl)phenyl)spiro[3.5]nonane-2-carboxamide], 6.23 nM. For the molecule `O=C(Nc1cccc(Cl)c1)C1CC2(CCC(c3ccnc4ccc(F)cc34)CC2)C1` (single isomer, unassigned) [Example 36, N-(3-chlorophenyl)-7-(6-fluoroquinoline-4-yl)spiro[3.5]nonane-2-carboxamide], the IC50 amounted to 8.32 nM. To `O=C(Nc1ccc(Br)c(F)c1)C1CC2(CCC(c3ccnc4ccc(F)cc34)CC2)C1` (single isomer, unassigned) [Example 37, N-(3-fluoro-4-bromophenyl)-7-(6-fluoroquinoline-4-yl)spiro[3.5]nonane-2-carboxamide] belongs > 10 nM.
